Measured values from ChEMBL document CHEMBL1201862, “PubChem BioAssay data set” (2004).
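Step 1: Grow cells in 96-well plates. Step 2: Expose to compound for 48 hours at 5 concentrations. Step 3: Interpolate endpoints linearly; if unreached, use highest concentration. Abbreviation: GI50, concentration required for 50% inhibition of growth.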 Activity calls are given as the source filed them. No stated cut-off is given here; in the data, active = GI50 up to about 1.1 µM and inactive = higher.

Tests used:
Test in all cases: DTP human tumour cell line panel, 48 h
SNB-19 = tested on: SNB-19
U-251 = tested on: U-251
CAKI-1 = tested on: CAKI-1
NCI-H23 = tested on: NCI-H23
TK-10 = tested on: TK-10
HCT-116 = tested on: HCT-116
NCI-H226 = tested on: NCI-H226
MOLT-4 = tested on: MOLT-4
M19-MEL = tested on: M19-MEL
SF-295 = tested on: SF-295
SN12C = tested on: SN12C
HOP-92 = tested on: HOP-92
UO-31 = tested on: UO-31
HOP-62 = tested on: HOP-62
SK-MEL-28 = tested on: SK-MEL-28
786-0 = tested on: 786-0
OVCAR-3 = tested on: OVCAR-3
SK-OV-3 = tested on: SK-OV-3

Compound | GI50 (SNB-19) | GI50 (U-251) | GI50 (CAKI-1) | GI50 (NCI-H23) | GI50 (TK-10) | GI50 (HCT-116) | GI50 (NCI-H226) | GI50 (MOLT-4) | GI50 (M19-MEL) | GI50 (SF-295) | GI50 (SN12C) | GI50 (HOP-92) | GI50 (UO-31) | GI50 (HOP-62) | GI50 (SK-MEL-28) | GI50 (786-0) | GI50 (OVCAR-3) | GI50 (SK-OV-3)
CS/C(=N/C(=O)c1ccccc1)SCCS/C(=N\C(=O)c1ccccc1)SC | > 100 µM (inactive) | > 100 µM (inactive) | > 100 µM (inactive) | > 100 µM (inactive) | > 100 µM (inactive) | > 100 µM (inactive) | > 100 µM (inactive) | > 100 µM (inactive) | > 100 µM (inactive) | > 100 µM (inactive) | > 100 µM (inactive) | 20 µM (inactive) | > 100 µM (inactive) | 62.2 µM (inactive) | > 100 µM (inactive) | > 100 µM (inactive) | 68.5 µM (inactive) | –
C=CCNC(=O)ON1C(=O)CCC1=O | > 100 µM (inactive) | > 100 µM (inactive) | – | > 100 µM (inactive) | > 100 µM (inactive) | > 100 µM (inactive) | – | > 100 µM (inactive) | > 100 µM (inactive) | > 100 µM (inactive) | > 100 µM (inactive) | > 100 µM (inactive) | > 100 µM (inactive) | > 100 µM (inactive) | > 100 µM (inactive) | > 100 µM (inactive) | > 100 µM (inactive) | > 100 µM (inactive)
CC(=O)O[C@H]1CCC2[C@@H]3CCC4C(=O)c5oncc5C[C@]4(C)C3CC[C@@]21C (some centres undefined) | > 10 µM (inactive) | > 100 µM (inactive) | – | > 100 µM (inactive) | > 100 µM (inactive) | > 10 µM (inactive) | > 10 µM (inactive) | > 100 µM (inactive) | > 100 µM (inactive) | 39.5 µM (inactive) | > 100 µM (inactive) | > 100 µM (inactive) | > 10 µM (inactive) | > 100 µM (inactive) | > 100 µM (inactive) | > 100 µM (inactive) | > 100 µM (inactive) | > 100 µM (inactive)
Cc1ccc(Sc2cc([N+](=O)[O-])cc(Sc3ccc(C)cc3)c2Sc2ccc(C)cc2)cc1 | 66.8 µM (inactive) | 46.5 µM (inactive) | > 100 µM (inactive) | – | > 100 µM (inactive) | > 100 µM (inactive) | > 100 µM (inactive) | 34.1 µM (inactive) | > 100 µM (inactive) | > 100 µM (inactive) | > 100 µM (inactive) | – | > 100 µM (inactive) | > 100 µM (inactive) | – | 51.6 µM (inactive) | > 100 µM (inactive) | –
COC(=O)C1=C(SC)SC2(C(=O)OC)C3C=C(C)C4C(N13)C42C(=O)OC (centres undefined) | > 100 µM (inactive) | > 100 µM (inactive) | > 100 µM (inactive) | > 100 µM (inactive) | > 100 µM (inactive) | > 100 µM (inactive) | > 100 µM (inactive) | > 100 µM (inactive) | > 100 µM (inactive) | > 100 µM (inactive) | > 100 µM (inactive) | – | > 100 µM (inactive) | > 100 µM (inactive) | > 100 µM (inactive) | > 100 µM (inactive) | > 100 µM (inactive) | > 100 µM (inactive)
CC(C)c1cccc(C(C)C)c1N1C(=O)C(=O)C(c2nc3ccccc3o2)C(=O)C1=O | > 100 µM (inactive) | > 100 µM (inactive) | 40.5 µM (inactive) | 29.6 µM (inactive) | > 100 µM (inactive) | 25.8 µM (inactive) | 19.2 µM (inactive) | – | 63.4 µM (inactive) | > 100 µM (inactive) | > 100 µM (inactive) | 33.3 µM (inactive) | 94 µM (inactive) | > 100 µM (inactive) | 32.7 µM (inactive) | 14.4 µM (inactive) | 33.7 µM (inactive) | > 100 µM (inactive)
C=C(CCCO)[C@@H]1CC[C@@](C)(O)[C@H]1C | > 100 µM (inactive) | > 100 µM (inactive) | > 100 µM (inactive) | > 100 µM (inactive) | > 100 µM (inactive) | > 100 µM (inactive) | > 100 µM (inactive) | > 100 µM (inactive) | > 100 µM (inactive) | > 100 µM (inactive) | > 100 µM (inactive) | – | > 100 µM (inactive) | – | > 100 µM (inactive) | > 100 µM (inactive) | > 100 µM (inactive) | 0.885 µM (active)
COc1cc(/C=C2\C(=O)N(C(=O)Cc3ccccc3)N=C2C)cc(OC)c1OC | > 100 µM (inactive) | – | > 100 µM (inactive) | > 100 µM (inactive) | > 100 µM (inactive) | > 100 µM (inactive) | > 100 µM (inactive) | > 100 µM (inactive) | > 100 µM (inactive) | > 100 µM (inactive) | > 100 µM (inactive) | – | > 100 µM (inactive) | > 100 µM (inactive) | > 100 µM (inactive) | > 100 µM (inactive) | > 100 µM (inactive) | –
O=C(CCC(=O)Nc1ccc(Cl)c(Cl)c1)CC(=O)c1ccc(Br)cc1 | > 100 µM (inactive) | > 100 µM (inactive) | > 100 µM (inactive) | > 100 µM (inactive) | > 100 µM (inactive) | > 100 µM (inactive) | > 100 µM (inactive) | > 100 µM (inactive) | > 100 µM (inactive) | – | > 100 µM (inactive) | > 100 µM (inactive) | > 100 µM (inactive) | – | > 100 µM (inactive) | > 100 µM (inactive) | > 100 µM (inactive) | > 100 µM (inactive)
O=C(Cc1nc2ccccc2o1)C(=O)Nc1ccc(Cl)cc1Cl | > 100 µM (inactive) | > 100 µM (inactive) | > 100 µM (inactive) | > 100 µM (inactive) | – | > 100 µM (inactive) | > 100 µM (inactive) | – | > 100 µM (inactive) | > 100 µM (inactive) | > 100 µM (inactive) | > 100 µM (inactive) | > 100 µM (inactive) | > 100 µM (inactive) | > 100 µM (inactive) | > 100 µM (inactive) | > 100 µM (inactive) | > 100 µM (inactive)
O=C(c1ccccc1)[C@@H]1C[C@H](Sc2ccccc2)c2cc(Cl)ccc2N1 | 43.3 µM (inactive) | 21.2 µM (inactive) | 42.2 µM (inactive) | 20.2 µM (inactive) | 25.2 µM (inactive) | 23.1 µM (inactive) | 25.6 µM (inactive) | 7.08 µM (inactive) | 30.1 µM (inactive) | 28.1 µM (inactive) | 15.7 µM (inactive) | – | 12.7 µM (inactive) | 51.6 µM (inactive) | 17.9 µM (inactive) | 18.2 µM (inactive) | 23 µM (inactive) | –
C/C(C=O)=C1\C(O)C[C@]1(C)C1CC(C)(C)CC1O (some centres undefined) | > 100 µM (inactive) | > 100 µM (inactive) | > 100 µM (inactive) | > 100 µM (inactive) | > 100 µM (inactive) | 72.9 µM (inactive) | > 100 µM (inactive) | 35.7 µM (inactive) | > 100 µM (inactive) | 41.4 µM (inactive) | > 100 µM (inactive) | 74.1 µM (inactive) | > 100 µM (inactive) | > 100 µM (inactive) | > 100 µM (inactive) | > 100 µM (inactive) | 28.8 µM (inactive) | –
